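Five compound concentrations were applied to cells in 96-well plates for 48 hours; endpoints were derived by simple linear interpolation of the resulting dose-response curve. Abbreviation: GI50, concentration required for 50% inhibition of growth.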 The source made the active and inactive calls. Rule as the data show it: active = GI50 up to about 1.1 µM and inactive = higher.
Columns and labels:
Assay in all cases: growth of human tumour cells (NCI), 48 h
SK-MEL-5 = system: SK-MEL-5
COLO 205 = system: COLO 205
DMS-114 = system: DMS-114
Malme-3M = system: Malme-3M
A549 = system: A549
SNB-19 = system: SNB-19
UACC-257 = system: UACC-257
K562 = system: K562
HCT-15 = system: HCT-15
CAKI-1 = system: CAKI-1
SK-MEL-28 = system: SK-MEL-28
A498 = system: A498
786-0 = system: 786-0
ACHN = system: ACHN
U-251 = system: U-251
UO-31 = system: UO-31
SK-MEL-2 = system: SK-MEL-2
UACC-62 = system: UACC-62
NCI-H522 = system: NCI-H522
SNB-75 = system: SNB-75
NCI-H23 = system: NCI-H23
EKVX = system: EKVX
TK-10 = system: TK-10
SNB-78 = system: SNB-78
MOLT-4 = system: MOLT-4
HOP-18 = system: HOP-18
SF-295 = system: SF-295
HL-60 = system: HL-60
HOP-62 = system: HOP-62
KM-20L2 = system: KM-20L2
RXF 393 = system: RXF 393
OVCAR-3 = system: OVCAR-3
M14 = system: M14
NCI-H460 = system: NCI-H460
RPMI-8226 = system: RPMI-8226
SN12C = system: SN12C
HT-29 = system: HT-29
OVCAR-5 = system: OVCAR-5
M19-MEL = system: M19-MEL
LXFL 529 = system: LXFL 529
XF498 = system: XF498
NCI-H226 = system: NCI-H226
SK-OV-3 = system: SK-OV-3
OVCAR-4 = system: OVCAR-4
OVCAR-8 = system: OVCAR-8
CCRF-CEM = system: CCRF-CEM
SR = system: SR
DLD-1 = system: DLD-1
LOX IMVI = system: LOX IMVI
SF-539 = system: SF-539
HCT-116 = system: HCT-116
HCC 2998 = system: HCC 2998
HOP-92 = system: HOP-92
IGROV-1 = system: IGROV-1
SF-268 = system: SF-268
DMS-273 = system: DMS-273
KM12 = system: KM12
DU-145 = system: DU-145
MDA-N = system: MDA-N
Hs-578T = system: Hs-578T
SW-620 = system: SW-620
PC-3 = system: PC-3
T47D = system: T47D
BT-549 = system: BT-549
MDA-MB-435 = system: MDA-MB-435
MDA-MB-231 = system: MDA-MB-231

CC(C)(C)NNC(=O)/C(=C/c1ccc([N+](=O)[O-])cc1)NC(=O)c1ccccc1
GI50 (SK-MEL-5): > 100 µM (inactive) | GI50 (COLO 205): 29 µM (inactive) | GI50 (DMS-114): 18.6 µM (inactive) | GI50 (Malme-3M): > 100 µM (inactive) | GI50 (A549): > 100 µM (inactive) | GI50 (SNB-19): > 100 µM (inactive) | GI50 (UACC-257): > 100 µM (inactive) | GI50 (K562): > 100 µM (inactive) | GI50 (HCT-15): > 100 µM | GI50 (CAKI-1): > 100 µM (inactive) | GI50 (SK-MEL-28): > 100 µM (inactive) | GI50 (A498): > 100 µM (inactive) | GI50 (786-0): 48.5 µM (inactive) | GI50 (ACHN): > 100 µM (inactive) | GI50 (U-251): 39 µM (inactive) | GI50 (UO-31): > 100 µM (inactive) | GI50 (SK-MEL-2): > 100 µM (inactive) | GI50 (UACC-62): > 100 µM (inactive) | GI50 (NCI-H522): 24.2 µM (inactive) | GI50 (SNB-75): > 100 µM (inactive) | GI50 (NCI-H23): > 100 µM (inactive) | GI50 (EKVX): > 100 µM (inactive) | GI50 (TK-10): > 100 µM (inactive) | GI50 (SNB-78): > 100 µM (inactive) | GI50 (MOLT-4): 41.3 µM (inactive) | GI50 (HOP-18): > 100 µM (inactive) | GI50 (SF-295): > 100 µM (inactive) | GI50 (HL-60): 44.8 µM (inactive) | GI50 (HOP-62): > 100 µM (inactive) | GI50 (KM-20L2): > 100 µM (inactive) | GI50 (RXF 393): > 100 µM (inactive) | GI50 (OVCAR-3): > 100 µM (inactive) | GI50 (M14): > 100 µM (inactive) | GI50 (NCI-H460): 60.1 µM (inactive) | GI50 (RPMI-8226): 45 µM (inactive) | GI50 (SN12C): > 100 µM (inactive) | GI50 (HT-29): > 100 µM (inactive) | GI50 (OVCAR-5): > 100 µM (inactive) | GI50 (M19-MEL): > 100 µM (inactive) | GI50 (LXFL 529): > 100 µM (inactive) | GI50 (XF498): > 100 µM (inactive) | GI50 (NCI-H226): 24.2 µM (inactive) | GI50 (SK-OV-3): > 100 µM (inactive) | GI50 (OVCAR-4): 75 µM (inactive) | GI50 (OVCAR-8): > 100 µM (inactive) | GI50 (CCRF-CEM): 31.3 µM (inactive) | GI50 (SR): 21.6 µM (inactive) | GI50 (DLD-1): 43.5 µM (inactive) | GI50 (LOX IMVI): 17.2 µM (inactive) | GI50 (SF-539): > 100 µM (inactive) | GI50 (HCT-116): > 10 µM (inactive) | GI50 (HCC 2998): > 100 µM (inactive) | GI50 (HOP-92): > 100 µM (inactive) | GI50 (IGROV-1): > 100 µM (inactive) | GI50 (SF-268): 55.8 µM (inactive) | GI50 (DMS-273): 33.7 µM (inactive) | GI50 (KM12): > 100 µM (inactive)

CC1(C)OCC(CO)(Nc2nc(N3CC3)nc(N3CC3)n2)CO1
GI50 (SK-MEL-5): 8.18 µM (inactive) | GI50 (COLO 205): 20.3 µM (inactive) | GI50 (DMS-114): 4.65 µM (inactive) | GI50 (Malme-3M): 16.9 µM (inactive) | GI50 (A549): 4.05 µM (inactive) | GI50 (SNB-19): 11.2 µM (inactive) | GI50 (UACC-257): 14.7 µM (inactive) | GI50 (K562): 12.7 µM (inactive) | GI50 (HCT-15): 15.2 µM | GI50 (CAKI-1): 1.52 µM (inactive) | GI50 (DU-145): 1.3 µM (inactive) | GI50 (MDA-N): 13.3 µM (inactive) | GI50 (SK-MEL-28): 19.5 µM (inactive) | GI50 (Hs-578T): 19 µM (inactive) | GI50 (SW-620): 14.5 µM (inactive) | GI50 (A498): 10.2 µM (inactive) | GI50 (786-0): 3.88 µM (inactive) | GI50 (ACHN): 1.42 µM (inactive) | GI50 (U-251): 4.04 µM (inactive) | GI50 (UO-31): 8.95 µM (inactive) | GI50 (SK-MEL-2): 19 µM (inactive) | GI50 (UACC-62): 3.15 µM (inactive) | GI50 (NCI-H522): 13.2 µM (inactive) | GI50 (SNB-75): 6.58 µM (inactive) | GI50 (NCI-H23): 4.12 µM (inactive) | GI50 (EKVX): 32 µM (inactive) | GI50 (TK-10): 24.6 µM (inactive) | GI50 (SNB-78): 22.3 µM (inactive) | GI50 (MOLT-4): 0.597 µM (active) | GI50 (HOP-18): 27 µM (inactive) | GI50 (SF-295): 2.96 µM (inactive) | GI50 (HL-60): 0.69 µM (active) | GI50 (HOP-62): 5.53 µM (inactive) | GI50 (KM-20L2): 18.6 µM (inactive) | GI50 (RXF 393): 13.2 µM (inactive) | GI50 (OVCAR-3): 20.4 µM (inactive) | GI50 (M14): 9.2 µM (inactive) | GI50 (NCI-H460): 0.38 µM (active) | GI50 (RPMI-8226): 16.1 µM (inactive) | GI50 (SN12C): 7.71 µM (inactive) | GI50 (HT-29): 13.9 µM (inactive) | GI50 (OVCAR-5): 20 µM (inactive) | GI50 (M19-MEL): 13.9 µM (inactive) | GI50 (LXFL 529): 24.5 µM (inactive) | GI50 (XF498): 14.3 µM (inactive) | GI50 (NCI-H226): 8.13 µM (inactive) | GI50 (SK-OV-3): 5.78 µM (inactive) | GI50 (OVCAR-4): 18.8 µM (inactive) | GI50 (OVCAR-8): 11.3 µM (inactive) | GI50 (CCRF-CEM): 1.16 µM (inactive) | GI50 (SR): 0.483 µM (active) | GI50 (PC-3): 17.9 µM (inactive) | GI50 (DLD-1): 31.3 µM (inactive) | GI50 (T47D): 1.49 µM (inactive) | GI50 (LOX IMVI): 5.52 µM (inactive) | GI50 (SF-539): 4.18 µM (inactive) | GI50 (HCT-116): 1.85 µM (inactive) | GI50 (BT-549): 26.1 µM (inactive) | GI50 (HCC 2998): 16.9 µM (inactive) | GI50 (HOP-92): 15.3 µM (inactive) | GI50 (IGROV-1): 20.6 µM (inactive) | GI50 (SF-268): 4.07 µM (inactive) | GI50 (MDA-MB-435): 19.5 µM (inactive) | GI50 (MDA-MB-231): > 10 µM (inactive) | GI50 (DMS-273): 3.04 µM (inactive) | GI50 (KM12): 16.3 µM (inactive)

From ChEMBL document CHEMBL1201862, “PubChem BioAssay data set” (2004)
